ChEMBL document CHEMBL5390230, “Imidazole-based sphingosine-1-phosphate transporter Spns2 inhibitors” (Bioorg Med Chem Lett, 2023)

The molecules below were run against T1, Sphingosine-1-phosphate transporter SPNS2 (Homo sapiens) (UniProt Q8IVW8) (assay: Inhibition of Spns2 in human HeLa cells assessed as decrease in extracellular S1P level at 3 uM by LC/MS analysis relative to control).
T1 sequence (whole entry): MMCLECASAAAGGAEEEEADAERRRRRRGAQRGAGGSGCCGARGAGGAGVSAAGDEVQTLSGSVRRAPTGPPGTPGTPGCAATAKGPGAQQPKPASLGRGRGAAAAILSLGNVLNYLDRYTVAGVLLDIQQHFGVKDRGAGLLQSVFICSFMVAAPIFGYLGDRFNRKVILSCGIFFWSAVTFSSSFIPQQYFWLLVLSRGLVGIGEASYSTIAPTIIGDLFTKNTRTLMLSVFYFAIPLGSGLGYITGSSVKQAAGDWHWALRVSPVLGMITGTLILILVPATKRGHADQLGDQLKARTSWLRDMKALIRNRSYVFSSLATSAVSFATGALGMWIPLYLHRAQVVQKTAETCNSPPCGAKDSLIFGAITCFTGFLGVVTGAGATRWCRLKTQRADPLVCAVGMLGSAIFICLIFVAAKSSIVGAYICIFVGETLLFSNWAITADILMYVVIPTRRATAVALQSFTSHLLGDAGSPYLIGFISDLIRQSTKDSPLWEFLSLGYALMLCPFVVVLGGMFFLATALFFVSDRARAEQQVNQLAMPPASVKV
Assay type: cell-based

SMILES | inhibition [%]
CCCCCCCCc1nc(-c2ccc(-n3cc[n+](C)c3)cc2)no1 | 26
CCCCCCCCCCc1nc(-c2ccc(-n3cc[n+](C)c3)cc2)no1 | 41
CCCCCCCCCCCc1nc(-c2ccc(-n3ccnc3)cc2)no1 | 25
CCCCCCCCCCc1nc(-c2ccc(-n3ccnc3)cc2)no1 | 33
CCCCCCCCCc1nc(-c2ccc(-n3cc[n+](C)c3)cc2)no1 | 47
CCCCCCCCCc1nc(-c2ccc(-n3ccnc3)cc2)no1 | 28
CCCCCCCc1nc(-c2ccc(-n3cc[n+](C)c3)cc2)no1 | 0

Further lines, results first:

inhibition [%] | SMILES
12 | CCCCCCCc1nc(-c2ccc(-n3ccnc3)cc2)no1
22 | CCCCCCCCc1nc(-c2ccc(-n3ccnc3)cc2)no1
3 | CCCCCCCCCCCc1nc(-c2ccc(-n3cc[n+](C)c3)cc2)no1

The molecules below were run against T1, Sphingosine-1-phosphate transporter SPNS2 (Homo sapiens) (assay: Inhibition of Spns2 in human HeLa cells assessed as decrease in extracellular S1P level at 2 uM by LC/MS analysis relative to control).
Assay type: cell-based

SMILES | inhibition [%]
CCCCCCCCCCc1ccc(-c2cn(CC(=O)OC(C)C)c(CCCN)n2)cc1 | 27
CCCCCCCCCCc1ccc(-c2noc(CCCN)n2)cc1 | 67
CCCCCCCCCCc1ccc(-c2cn(CC(N)=O)c(CCCN)n2)cc1 | 10
CCCCCCCCCCc1ccc(-c2cn(CCC)c(CCCN)n2)cc1 | 7
CCCCCCCCCCc1ccc(-c2cn(CCCOC)c(CCCN)n2)cc1 | 11

Other lines, results leading:

inhibition [%] | SMILES
51 | CCCCCCCCCCc1ccc(-c2cn(C)c(CCCN)n2)cc1
51 | CCCCCCCCCCc1ccc(-c2cn(CC)c(CCCN)n2)cc1

These molecules were tested against T2, Sphingosine-1-phosphate transporter SPNS2 (Homo sapiens, UniProt Q8IVW8) (assay: Inhibition of Spns2 in human HeLa cells decrease in extracellular S1P level by LC/MS method).
T2 sequence (Q8IVW8 whole entry): T1 sequence (whole entry)
Assay type: cell-based

IC50 [nM] | SMILES
2820 | CCCCCCCCCCc1ccc(-c2cn(C)c(CCCN)n2)cc1
1400 | CCCCCCCCCCc1ccc(-c2cn(CC)c(CCCN)n2)cc1
